Laboratory results reported in patent US11219628B2, “Replacement of cytotoxic preconditioning before cellular immunotherapy” (priority 2017, dated 2022).
“Also recorded” adds a separate entry of the source. Like-named read-outs stand apart in the source and are kept apart here.

Key:
Tregs = conditions: in vivo; cited from earlier work
germinal centers = conditions: 1 to 4 weeks of daily dosing; up to about 10 mgs/kg/day; cited from earlier work
neutrophil function = conditions: cited from earlier work
RBC = conditions: doses of about 24 mg/50 kg; cited from earlier work
[1] = tested on: peripheral blood lymphocytes; experiment: Repeat of Hinrichs dexamethasone dosing: peripheral blood lymphocytes by flow cytometry; format: in vivo; set-up: CD3+CD4+CD25+FoxP3+ Tregs reduction / CD3+ T lymphocytes reduction / CD3+CD4+ T lymphocytes reduction / CD3+CD8_T lymphocytes reduction: concentration or dose not given beside the values
Source text: Prior studies into the use of steroids to precondition a patient prior to ACT had shown this approach to be ineffective. […] In contrast, Hinrichs discloses that pretreatment with radiation did enhance ACT tumor killing. […] However, while Hinrichs reported 99% lymphodepletion, no enhancement of ACT tumor killing was observed. In contrast, Hinrichs observed that radiation does enhance ACT tumor killing. […] In contrast, CD3+ T lymphocytes were reduced from […] live events, only a non-significant […] reduction. CD3+CD4+ T lymphocytes were reduced from 1779 to 902 live events, only a non-significant 50% reduction. CD3+CD8_T lymphocytes were reduced from 1318 to 1277 live events, only a non-significant 3% reduction. CD3+CD4+CD25+FoxP3+ Tregs were reduced from 198 to 70 live events, only a non-significant 65% reduction. And natural killer (NK) cells were reduced from 1153 to 958 live events, only a non-significant 17% reduction.

[2] = tested on: peripheral blood T and B cells, germinal centers and marginal zones, plasma IL-2 and IL-15; experiment: Summary statements: acute dexamethasone doses needed for in vivo NTLA effects
Source text: The effects of glucocorticoids are complex and depend on each specific glucocorticoid's affinity for the GR and mineralocorticoid receptor (MR). Additionally, there are now 9 known isoforms of the cytosolic GR and additional membrane expressed GR receptors that have been identified but which are not fully characterized. […] In general, at low doses typically used for chronic therapy, glucocorticoids have been reported to redistribute lymphocytes from the peripheral blood into the bone marrow, at medium doses glucocorticoids have been reported to cause leukocytosis thought to be a redistribution of leukocytes from the bone marrow, spleen and thymus into the peripheral blood, and at high doses glucocorticoids have a lymphotoxic action on lymphocytes by triggering apoptosis and necroptosis.

[3] = tested on: multiple myeloma and other cancer cell lines; experiment: Direct tumor killing by acute dexamethasone; format: in vivo; conditions: about 1.6 mg/kg HED in a 48 hour period
Source text: The desired in vivo effects of exemplary NTLAs would include reductions in germinal center and marginal zones in secondary lymphatics, direct tumor killing of some cancers particularly; multiple myeloma, renal cell carcinoma, leukemia and lymphoma, non-small cell lung cancer (NSCLC), prostate and breast cancer; depletion of all peripheral blood lymphocyte types, lack of lymphocyte redistribution to the BM or other organs, and elevation of plasma cytokines including IL-2, and/or IL-7, and/or IL-12, and/or IL-15 to levels preferably of 20 pg/ml or greater, among others.

IL-2, IL-15, IL-6 = format: in vivo, human; conditions: oral 3 mg/kg dexamethasone base; 48 hours
Experimental: (FIG. 12, FIG. 13, FIG. 14 and FIG. 15 show data from the same four human patients.)
Blood was drawn before drug treatment and 48 hours post-treatment for CBC analysis and flow cytometry to determine lymphocyte and other blood cell populations. Serum was analyzed for cytokine levels. For one patient, pre-treatment CBCs were not drawn and thus normalized flow cytometry data is shown for only 3 patients.

[4] = tested on: blood lymphocyte populations, HSCs
Source text: Each patients pre-treatment values are connected to post-treatment values by a connecting line. CD4+ cells are also CD3+. CD8+ cells are also CD3+.
Each patient's pre-treatment values are connected to post-treatment values by a connecting line. Tregs are identified by being CD3+CD4+CD25+FoxP3+. B lymphocytes are identified by being CD3-CD19+.
Each patient's pre-treatment values are connected to post-treatment values by a connecting line. NK cells are identified by being CD3-CD16/56+. HSCs are identified by being CD34+CD38-.
Blood was drawn before drug treatment and 48 hours post-treatment for CBC analysis and flow cytometry to determine lymphocyte and other blood cell populations. […] For one patient, pre-treatment CBCs were not drawn and thus normalized flow cytometry data is shown for only 3 patients.

MOPC315 cells [5] = conditions: mouse, in vivo
Source text: (§1) The mouse multiple myeloma MOPC315 cell line available from ATCC is tail vein inoculated to immunocompetent Balbc mice at 2×10^6 cells.
(§2) Balb/cJ (H-2d) and B10.D2 (H-2d) mice were purchased from Jackson Laboratory (Bar Harbor, Me., USA). Mice were used when they were between 10- to 14-wk-old. […] Red blood cells are lysed using sterile filtered RBC lysis buffer (eBioscience, San Diego, USA) and cells are washed, resuspended in phosphate buffered saline (PBS) containing 3% FBS, and filtered through a 70 mM nylon membrane. For CD8 T-cell depletion, the “Mouse CD8a positive selection kit” (Stem Cell, Grenoble, France) are used according to the manufacturer's EASYSEP depletion protocol. Finally, cells are suspended in 200 ml PBS for i.v. injection. Balbc mice are transplanted by i.v. tail vein injection of 1×10^7 bone marrow cells and 7×10^7 splenocytes from donor B10.D2 mice between 10 and 30 days after MOPC315 inoculation.
(§3) For allogeneic NK cell administration, fully functional NK cells are isolated from donor B10.D2 mice using commercially available kits such as the one from Miltenyi. Alternatively, mouse NK cells can be purchased from ATCC (KIL cells). The NK Cell Isolation Kit was developed for the isolation of untouched NK cells from single-cell suspensions of murine spleen. Non-NK cells, i.e. T cells, dendritic cells, B cells, granulocytes, macrophages, and erythroid cells are magnetically labeled by using a cocktail of biotin-conjugated antibodies and Anti-Biotin MicroBeads. Isolation of highly pure unlabeled NK cells is achieved by depletion of non-target cells. The kit has been optimized to give outstanding purities in C57BL/6J mice. 1×10^7 isolated NK cells are transplanted by IV tail vein injection between 10 and 30 days after MOPC315 inoculation.

[6] = cited from earlier work
[7] = tested on: germinal centers in spleen; experiment: Mouse spleen germinal centers by FITC-PNA immunofluorescence
[8] = tested on: blood lymphocytes, neutrophils, RBCs, platelets; experiment: Rat complete blood counts 48 hours after acute dexamethasone; conditions: IV or PO 20, 40 or 80 mg/kg; for neutrophil number: all doses
[9] = tested on: blood lymphocyte populations, neutrophils, RBCs, platelets; experiment: Mouse CBC and flow cytometry 48 hours after oral acute dexamethasone; conditions: oral HED 3, 6, 9 or 12 mg/kg
Source text: Treg lymphocytes were identified by being CD3+CD4+CD25+FoxP3+.
NK cells were identified by being CD3−CD49b+. B lymphocytes were identified by being CD3−B220+.

MOPC315 cells [10] = experiment: Immunocompetent mouse model of multiple myeloma: preconditioning before alloHSCT or NK cells; conditions: preconditioning before alloHSCT
Source text: as §1, §2, §3

[11] = tested on: spleen weights, germinal centers; conditions: po daily for 13 weeks, mice; cited from earlier work
[12] = cited from earlier work; remark: listed apart in the source
[13] = Hinrichs dosing, non-significant

methylprednisone
effect on Tregs (Tregs): increases Tregs

C=CC[C@@H]1/C=C(\C)C[C@H](C)C[C@H](OC)[C@H]2O[C@@](O)(C(=O)C(=O)N3CCCC[C@H]3C(=O)O[C@H](/C(C)=C/[C@@H]3CC[C@@H](O)[C@H](OC)C3)[C@H](C)[C@@H](O)CC1=O)[C@H](C)C[C@@H]2OC [Tacrolimus]
daily dosing required to reduce germinal centers (germinal centers): ≥ 0.48 mg/kg/day
neutrophil function (neutrophil function): inhibits neutrophil function

C[C@H]1C[C@H]2[C@@H]3CCC4=CC(=O)C=C[C@]4(C)[C@@]3(F)[C@@H](O)C[C@]2(C)[C@@]1(O)C(=O)CO [Betamethasone]
effect on RBC (RBC): reduces RBC

C[C@@H]1C[C@H]2[C@@H]3CCC4=CC(=O)C=C[C@]4(C)[C@@]3(F)[C@@H](O)C[C@]2(C)[C@@]1(O)C(=O)CO [Dexamethasone, dexamethasone]
CD3+ T lymphocytes reduction [1, 13]: 33%
CD3+CD4+ T lymphocytes reduction [1, 13]: 50%
CD3+CD4+CD25+FoxP3+ Tregs reduction [1, 13]: 65%
CD3+CD8_T lymphocytes reduction [1, 13]: 3%
natural killer (NK) cells reduction [1, 13]: 17%
CD3+CD4+CD25+FoxP3+ Tregs, live events ([1]; Hinrichs dosing, reduced from 198): 70 live events
natural killer (NK) cells, live events ([1]; Hinrichs dosing, reduced from 1153): 958 live events
CD3+CD8_T lymphocytes, live events ([1]; Hinrichs dosing, reduced from 1318): 1277 live events
CD3+CD4+ T lymphocytes, live events ([1]; Hinrichs dosing, reduced from 1779): 902 live events
CD3+ T lymphocytes, live events ([1]; intraperitoneal 10 mg/kg (HED 0.81 mg/kg) on day −6, −4, −2, reduced from 3370): 2441 live events
B lymphocytes reduction vs vehicle control ([1]; intraperitoneal 10 mg/kg (HED 0.81 mg/kg) on day −6, −4, −2, significant): 65%
B lymphocytes (CD3-CD19+ cells) in the peripheral blood, live events by flow cytometry ([1]; intraperitoneal 10 mg/kg (HED 0.81 mg/kg) on day −6, −4, −2, vehicle control 10680): 3733 live events
acute oral dose necessary to reduce peripheral blood T and B cells ([2]; 48 hours after administration): ≥ 3 mg/kg
return to baseline levels of peripheral blood T and B cells ([2]; acute oral doses of 3 mg/kg or greater): 5 to 14 days after dosing
acute dose required for lymphodepletion ([2]; in vivo): > 3 mg/kg HED
acute dose that reduces germinal centers and marginal zones in secondary lymphatics ([2]; in vivo): ≥ 6 mg/kg HED
dose of dexamethasone base at which plasma IL-2 and IL-15 cytokine elevations are observed ([2]; in vivo): ≥ 3 mg/kg HED
direct tumor killing [3]: about 50%
patients with increased serum IL-2 and/or IL-15 levels (IL-2, IL-15, IL-6): 100%
patients showing lymphocytosis ([4]; 3 mg/kg HED): 50%
hematopoietic stem cells (CD34+CD38-) ([4]; human, in vivo, po, 3 mg/kg): spared
toxicity compared to standard CyFlu preconditioning (MOPC315 cells [5]): much less toxicity
toxicity compared to standard repeat CyFlu preconditioning (MOPC315 cells [5]): less toxicity
lowest lethal dose ([6]; healthy mice): 114 mg/kg HED
lowest lethal dose ([6]; tumor bearing mice): 43 mg/kg HED
neutrophil function (neutrophil function): do not inhibit neutrophil function
HED at which germinal centers are reduced in mice [7]: ≥ 3 mg/kg HED
Hct [8]: not affected
HgB [8]: not affected
RBCs [8]: not affected
platelets [8]: not affected
neutrophil number [8]: not reduced; also recorded: increased by all doses
neutrophil number ([8]; listed as Dex): does not reduce
RBCs [9]: spared
neutrophils [9]: spared
platelets [9]: spared
B lymphocytes reduction compared to placebo ([9]; dose for the value not stated): 83%
CD3+ T lymphocytes reduction compared to placebo ([9]; dose for the value not stated): 65%
CD4+ T lymphocytes reduction compared to placebo ([9]; dose for the value not stated): 75%
CD8+ T lymphocytes reduction compared to placebo ([9]; dose for the value not stated): 56%
Tregs reduction compared to placebo ([9]; dose for the value not stated): 78%
absolute lymphocyte count reduction compared to placebo ([9]; dose for the value not stated): 84%
natural killer cells (NK) reduction compared to placebo ([9]; dose for the value not stated): 87%
RBCs ([9]; listed as Dex): spares
neutrophils ([9]; listed as Dex): sparing
platelets ([9]; listed as Dex): spares
body weights after preconditioning (in words) (MOPC315 cells [10]): not reduced

C[C@]12C=CC(=O)C=C1CC[C@@H]1[C@@H]2C(=O)C[C@@]2(C)[C@H]1CC[C@]2(O)C(=O)CO [Prednisone]
dose above which germinal centers are significantly impacted [11]: over 2.5 mg/kg
dose above which spleen weights are significantly impacted [11]: over 2.5 mg/kg
biologic half-life [12]: about 20 hours
